According to ChEMBL document CHEMBL3046276, “Preparation and activity study of new organophosphate insecticide candidates” (J Pestic Sci, 2011):
≈ marks a conversion by molar mass, not a printed value.

Experiments:
[1] = Toxicity in Rattus norvegicus Sprague-Dawley (rat) assessed as mortality measured after 24 hr administered orally through force feeding method; type: organism-based; conditions: in vivo, po
Pieris rapae = assay: Insecticidal activity against Pieris rapae after 24 hr by larvae-dipping method; type: functional
Apolygus lucorum = assay: Insecticidal activity against Apolygus lucorum after 24 hr by larvae-dipping method; type: functional
Ostrinia furnacalis = assay: Insecticidal activity against Ostrinia furnacalis (Asian corn borer) after 24 hr by larvae-dipping method; type: functional
Chilo suppressalis = assay: Insecticidal activity against Chilo suppressalis (rice stem borer) fed on compound pre-treated rice leaves assessed as insect mortality measured after 3 days by leaf-dipping method; type: functional
Helicoverpa zea [2] = assay: Insecticidal activity against Helicoverpa zea (corn earworm) fed on compound pre-treated cabbage leaves assessed as insect mortality measured after 48 hr by leaf-dipping method; type: functional
Helicoverpa zea [3] = assay: Insecticidal activity against Helicoverpa zea (corn earworm) fed on compound pre-treated cabbage leaves assessed as insect mortality measured after 24 hr by leaf-dipping method; type: functional
Cnaphalocrocis medinalis = assay: Insecticidal activity against Cnaphalocrocis medinalis fed on compound pre-treated corn leaves assessed as insect mortality measured after 3 days by leaf-dipping method; type: functional

`CCOP(=S)(OC)O/N=C(\C#N)c1ccccc1` (racemic) gave an LD50 at 24 h [1] of 1260 mg/kg, an LC50 (Pieris rapae) of 0.00734 µg/mL (≈ 0.0258 µM) and an LC50 (Apolygus lucorum) of 0.00568 µg/mL (≈ 0.02 µM). It also gave an LC50 (Ostrinia furnacalis) of 0.0698 µg/mL (≈ 0.246 µM).
For `CCOP(=S)(OC)Oc1nc(Cl)c(Cl)cc1Cl` (racemic), the LD50 at 24 h [1] was 147 mg/kg, the LC50 (Chilo suppressalis) was 0.27 µg/mL (≈ 0.802 µM) and the LC50 (Helicoverpa zea [2]) was 46.3 µg/mL (≈ 138 µM). It also gave an LC50 (Helicoverpa zea [3]) of 94.4 µg/mL (≈ 280 µM) and an LC50 (Cnaphalocrocis medinalis) of 1.06 µg/mL (≈ 3.15 µM).
With `CCOP(=S)(OCC)Oc1nc(Cl)c(Cl)cc1Cl` [CHLORPYRIFOS] the LD50 at 24 h [1] was 163 mg/kg, the LC50 (Chilo suppressalis) was 2.61 µg/mL (≈ 7.44 µM) and the LC50 (Helicoverpa zea [2]) was 63.9 µg/mL (≈ 182 µM). For the same compound, the LC50 (Helicoverpa zea [3]) was 390 µg/mL (≈ 1110 µM) and the LC50 (Cnaphalocrocis medinalis) was 13.9 µg/mL (≈ 39.6 µM).
`CCOP(=S)(OCC)O/N=C(\C#N)c1ccccc1` [PHOXIM] gave an LD50 at 24 h [1] of 1200 mg/kg, an LC50 (Pieris rapae) of 0.0088 µg/mL (≈ 0.0295 µM) and an LC50 (Apolygus lucorum) of 0.00789 µg/mL (≈ 0.0264 µM). It also gave an LC50 (Ostrinia furnacalis) of 0.0853 µg/mL (≈ 0.286 µM).
